The record followed here is PubChem BioAssay AID1259408 (Genetic Toxicology Data Bank (GENE-TOX), 2018).

The source made the active and inactive calls. No rule for the calls is given here.

The data set has as its system GENE-TOX genotoxicity assays, various organisms and cells. Kind of data set: GENE-TOX mutagenicity studies. To be noted: for call: Assay Type: In vivo carcinogenicity studies, Assay Code: CCG+.
[1] abbreviates: Species/Cell Type: Escherichia coli polA (W3119 vs P3478), Assay Type: Rec-assay, DNA effects (bacterial DNA repair), Assay Code: RE1+, Evaluation Type: Evaluation A (Pre-1980).
The mark [2] stands for this setting: Species/Cell Type: Nonhuman, Evaluation Type: Evaluation A (Pre-1980).
Where [3] appears, read: Species/Cell Type: Salmonella typhimurium (one or more of the five standard strains: TA98, TA100, TA1535, TA1537, and TA1538), Assay Type: Histidine reverse gene mutation, Ames assay, Assay Code: SAL+, Evaluation Type: Evaluation A (Pre-1980).
The mark [4] stands for this setting: Species/Cell Type: Salmonella typhimurium (one or more of the five standard strains: TA98, TA100, TA1535, TA1537, and TA1538), Assay Type: Histidine reverse gene mutation, Ames assay, Assay Code: SALT, Evaluation Type: Evaluation A (Pre-1980).
[5] abbreviates: Species/Cell Type: Drosophila melanogaster, Assay Type: Sex-linked recessive lethal gene mutation, Assay Code: SRLT, Evaluation Type: Evaluation A (Pre-1980).

As for `O=CC1CO1` (stereo not given), the mutagenic call under setting [1] is “active; positive”; the mutagenic call (Species/Cell Type: Human diploid fibroblasts, Assay Type: Unscheduled DNA synthesis (UDS) in vitro, DNA effects, Assay Code: UDH+, Evaluation Type: Evaluation A (Pre-1980)) is “active; positive”; the mutagenic call (Species/Cell Type: Mouse (BALB/c-3T3) cells, Assay Type: Cell transformation, Assay Code: CTB+D, Dose Response: With dose response, Evaluation Type: Evaluation A (Pre-1980)) is “active; positive”; the mutagenic call (Species/Cell Type: Saccharomyces cerevisiae, Assay Type: Mitotic recombination or gene conversion, Assay Code: YEH+, Evaluation Type: Evaluation A (Pre-1980)) is “active; positive”; the mutagenic call under setting [3] was “active; positive”; the mutagenic call (Species/Cell Type: Salmonella typhimurium, Assay Type: Forward and reverse gene mutation, host-mediated assay, Assay Code: HMA+, Evaluation Type: Evaluation A (Pre-1980)) was “active; positive”. Also, the mutagenic call (Species/Cell Type: Syrian hamster embryo (SHE) cells, Assay Type: Cell transformation, clonal assay, Assay Code: CTC+, Evaluation Type: Evaluation A (Pre-1980)) was “active; positive”. For the same molecule, under setting [2], the call is “active; positive”.
On to `[O][Cl+][O-]`, for which, under “Species/Cell Type: Mammalian polychromatic erythrocytes, Assay Type: Micronucleus test, chromosome aberrations, Assay Code: MNTT, Evaluation Type: Evaluation B (Post-1980)”, the mutagenic call is “no conclusion”.
With `O=C1CCc2c1c(=O)oc1c3c(cc(O)c21)O[C@H]1OC=C[C@@H]31`, the mutagenic call under setting [4] is given as “no conclusion”.
As for `CC1CC(=O)O1` (stereo not given), the call under setting [2] is “active; positive”.
On to `ClC(Cl)c1ccccc1`, for which the mutagenic call reads like this: (Species/Cell Type: Bacillus subtilis (H17 vs M45), Assay Type: Rec-assay, spot test, DNA effects (bacterial DNA repair), Assay Code: REW+, Evaluation Type: Evaluation A (Pre-1980)) “active; positive”; (Species/Cell Type: Salmonella typhimurium (one or more of the five standard strains: TA98, TA100, TA1535, TA1537, and TA1538), Assay Type: Histidine reverse gene mutation, Ames assay, Assay Code: SAL+*, Activation: With metabolic activation, Evaluation Type: Evaluation A (Pre-1980)) “active; positive”.
Turning to `c1ccc2nc3c(ccc4ccccc43)cc2c1`, the mutagenic call (Species/Cell Type: Nonhuman, Assay Type: Sister-chromatid exchange (SCE) in vitro, Assay Code: SC2+D, Dose Response: With dose response, Evaluation Type: Evaluation B (Post-1980)) was “active; positive”.
Consider `CCCCCc1cc(O)c2c(c1)OC(C)(C)[C@@H]1CCC(CO)=C[C@@H]21`, for which, for the setting “Species/Cell Type: Human diploid fibroblasts, Assay Type: Unscheduled DNA synthesis (UDS) in vitro, DNA effects, Assay Code: UDH-, Evaluation Type: Evaluation A (Pre-1980)”, the mutagenic call was “inactive; negative”.
As to `O[C@@H]1[C@@H]2O[C@@H]2c2ccccc2[C@H]1O`, the mutagenic call under setting [1] is “active; positive”.
As to `c1cc2ccc3ccc4c5c(c6c(c1CCC6)c2c35)CCC4`, under setting [4], the mutagenic call was “no conclusion”.
Regarding `Nc1ccc(Sc2ccc(N)cc2)cc1`, the call under setting [2] is “active; positive”.
Turning to `COc1ccc2c3c1O[C@H]1[C@@H](O)C=C[C@H]4[C@@H](C2)N(C)CC[C@@]341`, the mutagenic call is “no conclusion” (Species/Cell Type: Mammalian polychromatic erythrocytes, Assay Type: Micronucleus test, chromosome aberrations, Assay Code: MNTT, Evaluation Type: Evaluation A (Pre-1980)) and “inactive; negative” (Species/Cell Type: Mouse, Sex: Male, Assay Type: Sperm morphology, Assay Code: SPI-, Evaluation Type: Evaluation A (Pre-1980)).
Consider `CN(C)c1ccc2nc3c(C(=O)O)cc(=O)c(O)c-3oc2c1`, for which the mutagenic call under setting [5] is listed as “no conclusion”.
Turning to `CN(C)P(=O)(N(C)C)N(C)C`, the mutagenic call by setting is: (Species/Cell Type: Drosophila melanogaster, Assay Type: Sex-linked recessive lethal gene mutation, Assay Code: SRL+, Evaluation Type: Evaluation A (Pre-1980)) “active; positive”; (Species/Cell Type: Drosophila melanogaster, Sex: Male, Assay Type: Heritable translocation test, chromosome aberrations, Assay Code: DHT+, Evaluation Type: Evaluation A (Pre-1980)) “active; positive”; (Species/Cell Type: Mammalian polychromatic erythrocytes, Assay Type: Micronucleus test, chromosome aberrations, Assay Code: MNT+, Evaluation Type: Evaluation A (Pre-1980)) “active; positive”; (Species/Cell Type: Mouse, Sex: Male, Assay Type: Sperm morphology, Assay Code: SPI+, Evaluation Type: Evaluation A (Pre-1980)) “active; positive”; (Species/Cell Type: Nonhuman, Assay Type: Sister-chromatid exchange (SCE) in vitro, Assay Code: SC2+D*, Activation: With metabolic activation, Dose Response: With dose response, Evaluation Type: Evaluation B (Post-1980)) “active; positive”; (Species/Cell Type: Rabbit, Sex: Male, Assay Type: Sperm morphology, Assay Code: SPR+, Evaluation Type: Evaluation A (Pre-1980)) “active; positive”. The mutagenic call is “active; positive” (Species/Cell Type: Rodents, Sex: Male, Assay Type: Dominant lethal test, Assay Code: DLT+, Evaluation Type: Evaluation A (Pre-1980)) and “active; positive” (Species/Cell Type: Tradescantia species, Assay Type: Gene mutation, Assay Code: TRM+D, Dose Response: With dose response, Evaluation Type: Evaluation A (Pre-1980)). For the same molecule, the call under setting [2] is “active; positive”.
Consider `O=[N+]([O-])c1ccc(O/N=C/c2cc(Br)c(O)c(Br)c2)c([N+](=O)[O-])c1`, for which, for the setting “Species/Cell Type: Saccharomyces cerevisiae, Assay Type: Mitotic recombination or gene conversion, Assay Code: YEC-, Evaluation Type: Evaluation A (Pre-1980)”, the mutagenic call is “inactive; negative”.
As to `CC(=O)NS(=O)(=O)c1ccc(N)cc1`, the mutagenic call reads like this: (Species/Cell Type: Neurospora crassa, Assay Type: Aneuploidy, chromosome aberrations, Assay Code: NEN+, Evaluation Type: Evaluation A (Pre-1980)) “active; positive”; (Species/Cell Type: Saccharomyces cerevisiae, Assay Type: Aneuploidy, chromosome aberrations, Assay Code: YEN+, Evaluation Type: Evaluation A (Pre-1980)) “active; positive”.
Regarding `OC(c1ccc2c(c1)OCO2)C1CO1` (stereo not given), the mutagenic call under setting [5] is given as “no conclusion” and the mutagenic call under setting [3] was “active; positive”.
